Laboratory results published in patent US20190022152A1, “MICROBIOME RESPONSE TO AGENTS” (Yeda Research and Development Co., Ltd., priority 2014, published 2019).
Where two headings read alike, the source gives them in different places.

Tested on: fecal microbiota
Details: for Fold change (week 11/week 0) in relative species abundance: fecal samples, 11 weeks consumption
Method: Illumina sequence reads were mapped to the human microbiome reference genome database of the Human Microbiome Project [www(dot)hmpdacc(dot)org/HMREFG/^32], and to a gut microbial gene catalogue^33 using GEM mapper^58 with the following parameters: • -m 3 -s 0 -q offset-33 -gem-quality-threshold 26
Microbial species abundance was measured as the fraction of reads that mapped to a single species in the database. An EM algorithm adapted from Pathoscope^59 was employed to determine the correct assignment of reads that mapped to more than one species. We considered only species for which at least 10% of the genome was covered (each coverage bin was 10,000-bp long) in at least one of the growth conditions (saccharin, water, or glucose). Reads mapped to the gut microbial gene catalogue were assigned a KEGG^34,35 ID according to the mapping available with the catalogue. Genes were subsequently mapped to KEGG pathways, and only pathways whose gene coverage was above 0.2 were included.

For `O=C1NS(=O)(=O)c2ccccc21` [saccharin], the “changes in microbial relative species abundance” value (11 weeks commercial saccharin vs glucose or water, F-test p<10^−10) was “largest changes”, the “Fold change (week 11/week 0) in relative species abundance” value (Symbol BACT_9, Number 996) was 0.65 and the “Fold change (week 11/week 0) in relative species abundance” value (Symbol BACT_22, Number 639) was 0.36. The “Fold change (week 11/week 0) in relative species abundance” value (Symbol BACT_38, Number 780) was 0.50, the “Fold change (week 11/week 0) in relative species abundance” value (Symbol BACT_49, Number 420) was 0.02 and the “Fold change (week 11/week 0) in relative species abundance” value (Symbol BACT_60, Number 752) was 0.71. For the same compound, the “Fold change (week 11/week 0) in relative species abundance” value (Symbol BACT_65, Number 918) was 6.73, the “Fold change (week 11/week 0) in relative species abundance” value (Symbol BACT_70, Number 863) was 9.41 and the “Fold change (week 11/week 0) in relative species abundance” value (Symbol BACT_85, Number 934) was 0.45. For the same compound, the “Fold change (week 11/week 0) in relative species abundance” value (Symbol BACT_142, Number 843) was 0.42, the “Fold change (week 11/week 0) in relative species abundance” value (Symbol BACT_170, Number 883) was 0.48 and the “Fold change (week 11/week 0) in relative species abundance” value (Symbol BACT_171, Number 748) was 0.56. The “Fold change (week 11/week 0) in relative species abundance” value (Symbol BACT_172, Number 768) was 1.03, the “Fold change (week 11/week 0) in relative species abundance” value (Symbol BACT_178, Number 921) was 0.28 and the “Fold change (week 11/week 0) in relative species abundance” value (Symbol BACT_181, Number 767) was 0.40. The “Fold change (week 11/week 0) in relative species abundance” value (Symbol BACT_185, Number 633) was 8.79, the “Fold change (week 11/week 0) in relative species abundance” value (Symbol BACT_189, Number 636) was 1.92 and the “Fold change (week 11/week 0) in relative species abundance” value (Symbol BACT_192, Number 995) was 0.36. For the same compound, the “Fold change (week 11/week 0) in relative species abundance” value (Symbol BACT_194, Number 846) was 0.51, the “Fold change (week 11/week 0) in relative species abundance” value (Symbol BACT_195, Number 523) was 0.40 and the “Fold change (week 11/week 0) in relative species abundance” value (Symbol BACT_196, Number 395) was 12.66. For the same compound, the “Fold change (week 11/week 0) in relative species abundance” value (Symbol BACT_225, Number 953) was 0.44, the “Fold change (week 11/week 0) in relative species abundance” value (Symbol BACT_258, Number 620) was 0.55 and the “Fold change (week 11/week 0) in relative species abundance” value (Symbol BACT_260, Number 1443) was 0.55. For the same compound, the “Fold change (week 11/week 0) in relative species abundance” value (Symbol BACT_300, Number 769) was 0.50, the “Fold change (week 11/week 0) in relative species abundance” value (Symbol BACT_371, Number 960) was 2.13 and the “Fold change (week 11/week 0) in relative species abundance” value (Symbol BACT_374, Number 805) was 0.34. The “Fold change (week 11/week 0) in relative species abundance” value (Symbol BACT_392, Number 915) was 0.66, the “Fold change (week 11/week 0) in relative species abundance” value (Symbol BACT_393, Number 932) was 0.53 and the “Fold change (week 11/week 0) in relative species abundance” value (Symbol BACT_397, Number 914) was 0.45. For the same compound, the “Fold change (week 11/week 0) in relative species abundance” value (Symbol BACT_409, Number 845) was 9.91, the “Fold change (week 11/week 0) in relative species abundance” value (Symbol BACT_413, Number 847) was 1.25 and the “Fold change (week 11/week 0) in relative species abundance” value (Symbol BACT_418, Number 749) was 0.22. The “Fold change (week 11/week 0) in relative species abundance” value (Symbol BACT_419, Number 920) was 0.15, the “Fold change (week 11/week 0) in relative species abundance” value (Symbol BACT_420, Number 922) was 0.33 and the “Fold change (week 11/week 0) in relative species abundance” value (Symbol BACT_424, Number 906) was 0.29. The “Fold change (week 11/week 0) in relative species abundance” value (Symbol BACT_449, Number 772) was 2.90, the “Fold change (week 11/week 0) in relative species abundance” value (Symbol BACT_463, Number 719) was 0.00 and the “Fold change (week 11/week 0) in relative species abundance” value (Symbol BACT_496, Number 765) was 2.97. The “Fold change (week 11/week 0) in relative species abundance” value (Symbol BACT_499, Number 35) was 0.24, the “Fold change (week 11/week 0) in relative species abundance” value (Symbol BACT_511, Number 591) was 3.71 and the “Fold change (week 11/week 0) in relative species abundance” value (Symbol BACT_535, Number 940) was 0.14. For the same compound, the “Fold change (week 11/week 0) in relative species abundance” value (Symbol BACT_539, Number 117) was 0.22, the “Fold change (week 11/week 0) in relative species abundance” value (Symbol BACT_551, Number 907) was 0.62 and the “Fold change (week 11/week 0) in relative species abundance” value (Symbol BACT_572, Number 963) was 0.70. For the same compound, the “Fold change (week 11/week 0) in relative species abundance” value (Symbol BACT_586, Number 849) was 0.70, the “Fold change (week 11/week 0) in relative species abundance” value (Symbol BACT_627, Number 886) was 0.16 and the “Fold change (week 11/week 0) in relative species abundance” value (Symbol BACT_632, Number 871) was 3.17. For the same compound, the “Fold change (week 11/week 0) in relative species abundance” value (Symbol BACT_681, Number 125) was 0.00, the “Fold change (week 11/week 0) in relative species abundance” value (Symbol BACT_686, Number 1007) was 0.00 and the “Fold change (week 11/week 0) in relative species abundance” value (Symbol BACT_722, Number 377) was 1.88. For the same compound, the “Fold change (week 11/week 0) in relative species abundance” value (Symbol BACT_769, Number 610) was 3.38, the “Fold change (week 11/week 0) in relative species abundance” value (Symbol BACT_843, Number 1318) was 0.16 and the “Fold change (week 11/week 0) in relative species abundance” value (Symbol BACT_850, Number 394) was 2.51. For the same compound, the “Fold change (week 11/week 0) in relative species abundance” value (Symbol BACT_852, Number 766) was 0.77, the “Fold change (week 11/week 0) in relative species abundance” value (Symbol BACT_855, Number 835) was 0.34 and the “Fold change (week 11/week 0) in relative species abundance” value (Symbol BACT_890, Number 163) was 0.15. The “Fold change (week 11/week 0) in relative species abundance” value (Symbol BACT_913, Number 904) was 1.10, the “Fold change (week 11/week 0) in relative species abundance” value (Symbol BACT_915, Number 1315) was 10.39 and the “Fold change (week 11/week 0) in relative species abundance” value (Symbol BACT_931, Number 1088) was 0.53. The “Fold change (week 11/week 0) in relative species abundance” value (Symbol BACT_1001, Number 933) was 0.75, the “Fold change (week 11/week 0) in relative species abundance” value (Symbol BACT_1025, Number 751) was 0.53 and the “Fold change (week 11/week 0) in relative species abundance” value (Symbol BACT_1043, Number 948) was 1.08. For the same compound, the “Fold change (week 11/week 0) in relative species abundance” value (Symbol BACT_1083, Number 1008) was 0.00, the “Fold change (week 11/week 0) in relative species abundance” value (Symbol BACT_1131, Number 942) was 0.34 and the “Fold change (week 11/week 0) in relative species abundance” value (Symbol BACT_1311, Number 1259) was 0.34. The “Fold change (week 11/week 0) in relative species abundance” value (Symbol BACT_1314, Number 1399) was 0.67, the “Fold change (week 11/week 0) in relative species abundance” value (Symbol BACT_1315, Number 1395) was 0.46 and the “Fold change (week 11/week 0) in relative species abundance” value (Symbol BACT_1321, Number 1255) was 3.20. The “Fold change (week 11/week 0) in relative species abundance” value (Symbol BACT_1322, Number 1396) was 0.91, the “Fold change (week 11/week 0) in relative species abundance” value (Symbol BACT_1324, Number 1264) was 12.01 and the “Fold change (week 11/week 0) in relative species abundance” value (Symbol BACT_1348, Number 1311) was 9.24. The “Fold change (week 11/week 0) in relative species abundance” value (Symbol BACT_1378, Number 1375) was 141.18, the “Fold change (week 11/week 0) in relative species abundance” value (Symbol BACT_1427, Number 1266) was 0.00 and the “Fold change (week 11/week 0) in relative species abundance” value (Symbol BACT_1442, Number 1400) was 2.16. The “Fold change (week 11/week 0) in relative species abundance” value (Symbol BACT_1457, Number 1337) was 0.23, the “Fold change (week 11/week 0) in relative species abundance” value (Symbol BACT_1496, Number 1321) was 2.65 and the “Fold change (week 11/week 0) in relative species abundance” value (Symbol BACT_1501, Number 1331) was 0.17. The “Fold change (week 11/week 0) in relative species abundance” value (Symbol BACT_1526, Number 1227) was 0.07, the “Fold change (week 11/week 0) in relative species abundance” value (Symbol BACT_1555, Number 1469) was 0.21 and the “Fold change (week 11/week 0) in relative species abundance” value (Symbol BACT_1569, Number 1462) was 0.30. For the same compound, the “Fold change (week 11/week 0) in relative species abundance” value (Symbol BACT_1595, Number 1533) was 0.00, the “Fold change (week 11/week 0) in relative species abundance” value (Symbol BACT_1596, Number 1502) was 0.12 and the “Fold change (week 11/week 0) in relative species abundance” value (Symbol BACT_1656, Number 1503) was 0.12. The “Fold change (week 11/week 0) in relative species abundance” value (Symbol BACT_3004, Number 5797) was 11.92, the “Fold change (week 11/week 0) in relative species abundance” value (Symbol BACT_3005, Number 5799) was 1.01 and the “Fold change (week 11/week 0) in relative species abundance” value (Symbol BACT_3007, Number 5798) was 1.89. For the same compound, the “Fold change (week 11/week 0) in relative species abundance” value (Symbol BACT_3024, Number 5841) was 0.02, the “Fold change (week 11/week 0) in relative species abundance” value (Symbol BACT_3045, Number 5818) was 0.01 and the “Fold change (week 11/week 0) in relative species abundance” value (Symbol BACT_3056, Number 5836) was 0.00. For the same compound, the “Fold change (week 11/week 0) in relative species abundance” value (Symbol BACT_3058, Number 5816) was 0.11, the “Fold change (week 11/week 0) in relative species abundance” value (Symbol BACT_3060, Number 5821) was 0.00 and the “Fold change (week 11/week 0) in relative species abundance” value (Symbol BACT_3062, Number 5800) was 0.99. For the same compound, the “Fold change (week 11/week 0) in relative species abundance” value (Symbol BACT_3085, Number 5842) was 0.03, the “Fold change (week 11/week 0) in relative species abundance” value (Symbol BACT_3092, Number 5793) was 2.71 and the “Fold change (week 11/week 0) in relative species abundance” value (Symbol BACT_4040, Number 5769) was 1.16. The “Fold change (week 11/week 0) in relative species abundance” value (Symbol BACT_4042, Number 5770) was 0.04, the “Fold change (week 11/week 0) in relative species abundance” value (Symbol EUKY_22, Number 1758) was 0.45 and the “Fold change (week 11/week 0) in relative species abundance” value (Symbol EUKY_141, Number 1875) was 0.53. For the same compound, the “Fold change (week 11/week 0) in relative species abundance” value (Symbol EUKY_222, Number 1954) was 0.49 and the “Fold change (week 11/week 0) in relative species abundance” value (Symbol V1RL3522, Number 3522) was 0.02.
